Tests used:
[1] = tested on: established type II collagen-induced arthritis (CIA) in DBA/1 mice; test: 14-day mouse established type II collagen-induced arthritis (CIA), PO QD (Example 10); type: in vivo; conditions: for arthritis scores measured daily vs vehicle controls / disease-induced body weight loss (percent change from baseline) vs vehicle controls: p<0.05 on the days printed; for AUC (All Paws) - Corrected for Initial Score / Change in Body Weight (g) / Histopathology Summed Score Knees / Histopathology Summed Score Paws / Histopathology Summed Score Six-Joints / Paw Score AUC (All Paws): mean(SE); for spleen weights compared to vehicle controls: all dose groups PO QD
Description: Prior to dosing, the candidate anti-inflammatory agents were reconstituted either by vortexing or stirring. The candidate anti-inflammatory agents were administered to the DBA/1 mice daily (QD) by the oral (PO) route.
Immunization with heterologous type II collagen (CII) induces arthritis in mice of the DBA/1 strain, which is genetically susceptible to this disease. To develop an experimental model of autoimmunity more adequate for the study of human rheumatoid arthritis (RA), male DBA/1 mice were injected intradermally (ID) with bovine type II collagen to induce arthritis as reported by Trentham et al (Trentham D E, Townes A S, Kang A H Autoimmunity to type II collagen: an experimental model of arthritis. J. Exper. Med. 1977, 146:857-868) and Bendele A (Bendele A, Animal models of rheumatoid arthritis. J. Musculoskelet. Neuronal Interact. 2001, 1(4):377-85). Male DBA/1 mice (n=114) that were 6-7 weeks old and weighed approximately 18-27 grams (mean 22 g) at enrollment (arthritis day 1) were obtained from Taconic Farms, Inc. The male DBA/1 mice were at least 6 weeks old at time of first immunization and were housed 3-5/cage in shoe-box polycarbonate cages with wire tops, wood chip bedding, and suspended food and water bottles. These animals were identified by a distinct number of ink marks at the base of the tail delineating animal number. After enrollment, all cages were labeled with protocol number, group number, and animal numbers.
The male DBA/1 (n=10/group for arthritis) were anaesthetized with Isoflurane, shaved at the base of the tail, and injected intradermally with 150 μL of Freund's Complete Adjuvant (Difco, Detroit, Mich.) containing bovine type II collagen (BBP, batch #7) (1 mg/ml) at the base of the tail on day 0 and again on day 21. […] Randomization was done after swelling was obviously established in at least one paw (score of 1) and attempts were made to ensure approximately equal mean scores of 0.5-1 across groups at the time of enrollment. […] The male DBA/1 mice were terminated on arthritis day 14 (3 hours post-dose).
Efficacy evaluation of the administered anti-inflammatory agents was based on animal body weights, clinical arthritis scores, arthritis scores expressed as area under the curve (AUC), and histopathology on fore paws, hind paws, and knees. Histopathology results were expressed as 4 paws, knees only, or 6 joints (knees included). Day 13 was used as the endpoint for analysis of body weight change since the male DBA/1 mice were fasted overnight prior to necropsy on day 14.

[2] = tested on: BCR signaling through BTK; test: Anti-IgM induced CD86 and CD69 on splenocyte B cells of CIA mice; type: in vivo, mouse; conditions: splenocytes 3 hr after last dosing on day 14
Description: (§1) FIG. 45 illustrates changes in a functional measure of BCR signalling through the CD86 marker. Mouse splenocytes were isolated from spleens from mice that were part of the mouse CIA study semi-therapeutic protocol, 3 hr after the last dosing on day 14 of the treatment and cryopreserved. After thawing, inhibition of anti-IgM-induced PD markers CD86 and CD69 on mouse splenocyte B cells were measured. Error bars represent the standard deviation for the 3 sets of splenocytes analyzed.
as §1, with “FIG. 46” for “FIG. 45”, “the CD69” for “the CD86”
Inhibition of the BCR signaling through BTK was evaluated by ex vivo stimulation of splenocytes using IgM and evaluation of CD86 and CD69 as functional responses of BCR stimulation.

MDA-MB-231 tumor cells = test: Osteolytic bone lesions after intratibial MDA-MB-231 tumor inoculation in nude rats; type: in vivo, rat; design: mean visual lysis score: scale not given here; mean left tibial density: unit not given here; conditions: zoledronate group (Group 2)
Description: FIG. 40A, FIG. 40B, FIG. 40C, FIG. 40D, FIG. 40E, FIG. 40F, and FIG. 40G illustrate the bone density in hind limbs of nude rats (n=6 per group) implanted with intratibial MDA-MB231 tumor […] and treated for up to 41 days with vehicle control, zoledronate (active control) or varying doses of Formula (II). Oral gavage administration of Formula (II) was scheduled as 3 days of initial QD dosing, followed by 30 days of BID dosing at the following dose levels: 3/3, 30/30, and 180/90 mg/kg/day. An untreated group of rats, without tibial implants (n=3) represents bone density of concurrently obtained normal rat tibial images. Statistical significance was determined by two-way ANOVA-Dunnett: ns=not significant, *=P<0.05, **=P<0.01, ***=P<0.001, versus Group 1.
Rats were inoculated with MDA-MB-231 tumor cells on Day 1, baseline radiographs were taken on Day 2, and treatment with Formula (II) began on Day 8. Radiographs were taken on Days 10, 17, 24, 31, 38, and 41. Anti-osteolytic activities were determined from differences in bone density and visual lysis scores between the drug-treated and vehicle-treated groups on each observation day, and also from changes in bone density and visual lysis scores in tumor-inoculated left tibias at baseline (Day 2) compared to Days 10, 17, 24,31, 38, and 41.
Radiographs were blinded for both analyses. […] Visual osteolysis was not detected in any rat in the nave group. The 4% increase in mean bone density from baseline to study end presumably reflected normal growth in these rats.

[3] = 5 mg/kg PO QD, prophylactic paws
[4] = 5 mg/kg PO QD, prophylactic paws only
[5] = 5 mg/kg PO QD, therapeutic paws only

SMILES	six-joint histopathology, reduction of summed scores vs vehicle controls ([1]; 5 mg/kg PO QD)	Clinical arthritis scores AUC, reduction vs vehicle controls ([1]; 5 mg/kg PO QD, all paws)	Clinical arthritis scores AUC, reduction when corrected for initial enrollment score ([1]; 5 mg/kg PO QD, all paws)	arthritis scores measured daily vs vehicle controls ([1]; 5 mg/kg PO QD, all paws)	AUC (All Paws) - Corrected for Initial Score ([1]; 5 mg/kg PO QD)	Change in Body Weight (g) ([1]; 5 mg/kg PO QD)	Histopathology Summed Score Knees ([1]; 5 mg/kg PO QD)	Histopathology Summed Score Paws ([1]; 5 mg/kg PO QD)	Histopathology Summed Score Six-Joints ([1]; 5 mg/kg PO QD)	Paw Score AUC (All Paws) ([1]; 5 mg/kg PO QD)	disease-induced body weight loss (percent change from baseline) vs vehicle controls ([1]; 5 mg/kg PO QD)	daily arthritis scores vs vehicle controls [1, 3]	Clinical arthritis scores AUC, reduction vs vehicle controls [1, 4]	spleen weights compared to vehicle controls [1]	BCR-mediated signaling (anti-IgM induced CD86 and CD69) [2]	also measured
CC#CC(=O)N1CC[C@@H](n2c(=O)n(-c3ccc(Oc4ccccc4)cc3)c3c(N)ncnc32)C1 [Formula (XXI), 6-amino-9-[(3R)-1-(2-butynoyl)-3-pyrrolidinyl]-7-(4-phenoxyphenyl)-7,9-dihydro-8H-purin-8-one]	85%	86%	104%	significantly reduced toward normal	*−1.33(1.48)	*0.89(0.71) g	*3.48(1.17)	*1.46(0.47)	*2.13(0.66)	*5.83(1.53)	significantly inhibited toward normal	significantly reduced toward normal	100%	not significantly affected	dose-responsive decreases in BCR-mediated signaling	six-joint histopathology, reduction of summed scores vs vehicle controls ([1]; 1 mg/kg PO QD): 73%; total body weight loss from enrollment to study termination ([1]; 1 mg/kg PO QD): significantly inhibited; Clinical arthritis scores AUC, reduction vs vehicle controls ([1]; 1 mg/kg PO QD, all paws): 65%; Clinical arthritis scores AUC, reduction when corrected for initial enrollment score ([1]; 1 mg/kg PO QD, all paws): 79%; arthritis scores measured daily vs vehicle controls ([1]; 1 mg/kg PO QD, all paws): significantly reduced toward normal; AUC (All Paws) - Corrected for Initial Score ([1]; 1 mg/kg PO QD): 7.28(3.26); Change in Body Weight (g) ([1]; 1 mg/kg PO QD): *0.33(0.82) g; Histopathology Summed Score Knees ([1]; 1 mg/kg PO QD): *3.45(1.22); Histopathology Summed Score Paws ([1]; 1 mg/kg PO QD): *4.14(1.27); Histopathology Summed Score Six-Joints ([1]; 1 mg/kg PO QD): *3.91(1.13); Paw Score AUC (All Paws) ([1]; 1 mg/kg PO QD): *14.43(4.11); disease-induced body weight loss (percent change from baseline) vs vehicle controls ([1]; 1 mg/kg PO QD): significantly inhibited toward normal; daily arthritis scores vs vehicle controls ([1]; 1 mg/kg PO QD, prophylactic paws): significantly reduced toward normal; Clinical arthritis scores AUC, reduction vs vehicle controls ([1]; 1 mg/kg PO QD, prophylactic paws only): 99%; total body weight loss from enrollment to study termination ([1]; 5 mg/kg PO QD): significantly inhibited; daily arthritis scores vs vehicle controls ([1]; 5 mg/kg PO QD, therapeutic paws): significantly reduced toward normal; Clinical arthritis scores AUC, reduction vs vehicle controls [1, 5]: 66%; Clinical arthritis scores AUC, reduction when corrected for initial enrollment score [1, 5]: 113%
CC#CC(=O)N1CCOC[C@H]1c1nc(-c2ccc(C(=O)Nc3ccccn3)cc2)c2c(N)nccn12 [(R)-4-(8-amino-3-(4-(but-2-ynoyl)morpholin-3-yl)imidazo[1,5-a]pyrazin-1-yl)-N-(pyridin-2-yl)benzamide]	75%	74%	90%	significantly reduced toward normal	*3.43(2.22)	−0.04(0.92) g	*2.65(0.79)	4.24(1.07)	*3.71(0.87)	*10.58(2.95)	significantly inhibited toward normal	significantly reduced toward normal	95%	not significantly affected	dose-responsive decreases in BCR-mediated signaling	
O=P(O)(O)C(O)(Cn1ccnc1)P(=O)(O)O [zoledronate, reference compound]																mean left tibial density (MDA-MB-231 tumor cells; Day 2 baseline): 200.0±1.6; increase in mean left tibial density (MDA-MB-231 tumor cells; Day 2 to Days 31 and 41): 4-6%; mean left tibial density (MDA-MB-231 tumor cells; Day 31): 207.8±1.6; mean left tibial density (MDA-MB-231 tumor cells; Day 41): 211.2±1.6; mean visual lysis score (MDA-MB-231 tumor cells; Days 31 and 41 each): 0.7
